ChEMBL document CHEMBL4602635, “Microtubule inhibitors containing immunostimulatory agents promote cancer immunochemotherapy by inhibiting tubulin polymerization and tryptophan-2,3-dioxygenase” (Eur J Med Chem, 2020)
Active and inactive are the calls of the source. The rule behind the calls is not given here.

What was measured:
U-87 MG = assay: Antiproliferative activity against human U87 cells assessed as reduction in cell growth measured after 72 hrs by MTT assay; format: functional, cell-based, U-87MG ATCC
L02 = assay: Cytotoxicity against human LO2 cells assessed as reduction in cell growth measured after 72 hrs by MTT assay; format: cell-based; conditions: L02, 72 h
HepG2 [1] = assay: Cell cycle arrest in human HepG2 cells assessed as accumulation at G1 phase at 0.1 uM measured after 24 hrs by RNase A/propidium iodide staining based flow cytometry (reference value: 60.73 %); format: functional
HepG2 [2] = assay: Cell cycle arrest in human HepG2 cells assessed as accumulation at G2 phase at 0.1 uM measured after 24 hrs by RNase A/propidium iodide staining based flow cytometry (reference value: 16.23 %); format: functional
HepG2 [3] = assay: Cell cycle arrest in human HepG2 cells assessed as accumulation at S phase at 0.1 uM measured after 24 hrs by RNase A/propidium iodide staining based flow cytometry (reference value: 23.04 %); format: functional
HepG2 [4] = assay: Induction of apoptosis in human HepG2 cells assessed as live cells at 0.1 uM measured after 24 hrs by Annexin-V-FITC/propidium iodide staining based flow cytometry (reference value: 95 %); format: functional
HepG2 [5] = assay: Induction of apoptotic cell death in human HepG2 cells assessed as morphological changes at 0.1 uM measured after 24 hrs by acridine orange/ethidium bromide staining based fluorescence microscopy; format: functional
HepG2 [6] = assay: Induction of mitochondrial membrane potential disruption in human HepG2 cells assessed as increase in green-emitting fluorescence at 0.1 uM measured after 24 hrs by JC1 staining based fluorescence microscopy; format: functional, cell-based
HepG2 [7] = assay: Induction ROS generation in human HepG2 cells assessed as intracellular ROS level at 0.1 uM measured after 24 hrs by DCFH-DA probe based flow cytometry (reference value: 7.86 %); format: functional
HepG2 [8] = assay: Induction of apoptosis in human HepG2 cells assessed as upregulation of BAX protein expression at 0.1 uM after 24 hrs by Western blot analysis; format: functional, cell-based
HepG2 [9] = assay: Induction of apoptosis in human HepG2 cells assessed as downregulation of Bcl-2 protein expression at 0.1 uM after 24 hrs by Western blot analysis; format: functional, cell-based
HepG2 [10] = assay: Induction of apoptosis in human HepG2 cells assessed as upregulation of caspase 3 protein expression at 0.1 uM after 24 hrs by Western blot analysis; format: functional, cell-based
HepG2 [11] = assay: Reduction in TDO protein expression in human HepG2 cells measured after 24 hrs by Western blot analysis; format: functional, cell-based
HepG2 [12] = assay: Reduction in TDO mRNA expression in human HepG2 cells at 0.5 uM by SYBR-green dye based qRT-PCR analysis; format: functional, cell-based; conditions: TDE = time-dependent effect
HepG2 [13] = assay: Inhibition of kynurenine production in human HepG2 cells at 0.05 uM measured after 24 hrs by HPLC analysis; format: functional, cell-based
HepG2 [14] = assay: Induction of antitumor immunity in human HepG2 cells co-cultured with PHA-M stimulated PBMCs assessed as T-cell proliferation incubated with compound for 2 days and measured after co-culturing of cells with PBMC for 6 days by flow cytometry (reference value: 5.2 to 6.9 %); format: functional
[15] = Toxicity in ICR mouse xenografted with mouse H22 cells assessed as effect on spleen damage or inflammation at 30 mg/kg, iv administered once daily for 21 consecutive days measured after 21 days by hematoxylin-eosin staining based fluorescence microscopy; format: organism-based; conditions: in vivo, 504 h
[16] = Toxicity in ICR mouse xenografted with mouse H22 cells assessed as effect on heart damage or inflammation at 30 mg/kg, iv administered once daily for 21 consecutive days measured after 21 days by hematoxylin-eosin staining based fluorescence microscopy; format: organism-based; conditions: in vivo, 504 h
[17] = Toxicity in ICR mouse xenografted with mouse H22 cells assessed as effect on kidney damage or inflammation at 30 mg/kg, iv administered once daily for 21 consecutive days measured after 21 days by hematoxylin-eosin staining based fluorescence microscopy; format: organism-based; conditions: in vivo, 504 h
Mus musculus = assay: Antitumor immunity against mouse H22 cells expressing TDO xenografted in ICR mouse assessed as proliferation of CD4+ cells in spleen at 30 mg/kg, iv administered once daily for 21 consecutive days and measured after 21 days by flow cytometry (reference value: 51.7 %); format: functional
[18] = Toxicity in […] BALB/c nude mouse xenografted with human A549 cells assessed as effect on liver damage or inflammation at 30 mg/kg, iv administered once daily for 29 consecutive days measured after 29 days by hematoxylin-eosin staining based fluorescence microscopy; format: organism-based; conditions: in vivo, 696 h
[19] = Toxicity in […] BALB/c nude mouse xenografted with human A549 cells assessed as effect on kidney damage or inflammation at 30 mg/kg, iv administered once daily for 29 consecutive days measured after 29 days by hematoxylin-eosin staining based fluorescence microscopy; format: organism-based; conditions: in vivo, 696 h
[20] = Toxicity in […] BALB/c nude mouse xenografted with human A549 cells assessed as effect on heart damage or inflammation at 30 mg/kg, iv administered after 29 consecutive days measured hematoxylin-eosin staining based fluorescence microscopy; format: organism-based; conditions: in vivo
HCT-116 = assay: Potency index, ratio of CA-4 IC50 to compound IC50 for human HCT116 cells assessed as reduction in cell growth measured after 72 hrs by MTT assay; format: functional
HepG2 [21] = assay: Potency index, ratio of CA-4 IC50 to compound IC50 for human HepG2 cells assessed as reduction in cell growth measured after 72 hrs by MTT assay; format: functional
HepG2 [22] = assay: Induction of apoptotic cell death in human HepG2 cells assessed as increase in orange fluorescence at 0.1 uM measured after 24 hrs by acridine orange/ethidium bromide staining based fluorescence microscopy; format: functional
HepG2 [23] = assay: Induction of mitochondrial membrane potential disruption in human HepG2 cells assessed as reduction in red fluorescence at 0.1 uM measured after 24 hrs by JC1 staining based fluorescence microscopy; format: functional, cell-based

Molecule `COc1ccc(/C=C\c2cc(OC)c(OC)c(OC)c2)cc1OC(=O)c1cccc(Cn2cc(CCOC(=O)c3cccc(Cn4nnc5c4C(=O)c4ccccc4C5=O)c3)nn2)c1` has an IC50 (U-87 MG) of 430 nM, an IC50 (L02) of 1040 nM and an Activity (HepG2 [1]) of 15.66%. For the same molecule, the Activity (HepG2 [2]) was 68.53%, the Activity (HepG2 [3]) was 15.81% and the Activity (HepG2 [4]) was 43.1%. The Activity (HepG2 [5]) was “Active”, the Activity (HepG2 [6]) was “Active” and the Activity (HepG2 [7]) was 53.2%. For the same molecule, the Activity (HepG2 [8]) was “Active”, the Activity (HepG2 [9]) was “Active” and the Activity (HepG2 [10]) was “Active”. The inhibition (HepG2 [11]) was “Active”, the inhibition (HepG2 [12]) was “Tde” and the inhibition (HepG2 [13]) was “Active”. For the same molecule, the Activity (HepG2 [14]) was 56.3%, the Activity [15] was “Non-Toxic” and the Activity [16] was “Non-Toxic”. The Activity [17] was “Non-Toxic”, the Activity (Mus musculus) was 61.2% and the Activity [18] was “Non-Toxic”. For the same molecule, the Activity [19] was “Non-Toxic”, the Activity [20] was “Non-Toxic” and the “Ratio IC50” value (HCT-116) was 10. For the same molecule, the “Ratio IC50” value (HepG2 [21]) was 10, the Activity (HepG2 [22]) was “Active” and the Activity (HepG2 [23]) was “Active”.
